{"source": "patent US7192905B1", "about": "“Organophosphate insecticide synergists for fly and tick control” (priority 2003, dated 2007)", "key": {"[1]": {"tested_on": "Santa Luiza strain of the southern cattle tick, larvae", "assay": "FAO larval packet test, Santa Luiza strain (Example 5)", "details": "for resistance of the strain: Santa Luiza strain"}, "[2]": {"tested_on": "horn fly (Kerrville strain, susceptible reference strain)", "assay": "Horn fly adult treated filter paper bioassay, Kerrville strain (Example 1)", "format": "in vivo, Haematobia irritans irritans", "details": "mortality after 2 hours; for effect on toxicity of chlorpyrifos: combined with chlorpyrifos 8.0 μg/cm^2; for effect on toxicity of coumaphos: combined with coumaphos 10 μg/cm^2; for effect on toxicity of pirimiphos-methyl: combined with pirimiphos-methyl 3.0 μg/cm^2", "procedure": "(§1) The horn fly strain used in this trial (referred to as the Kerrville strain) is an in vitro strain being maintained on citrated bovine blood, and serves as a susceptible reference strain. Adult flies were exposed to organophosphate pesticide alone or in combination with varying ratios of atrazine or propazine (shown in FIGS. 1–8). Concentrations of diazinon, pirimiphos-methyl, chlorpyrifos and coumaphos were 2.8, 3.0, 8.0, and 10 μg/cm^2, respectively (measured as the amount of pesticide applied per unit area of filter paper). Compounds were dissolved in acetone and applied onto filter paper, which was then placed into petri dishes with the adult flies and held at room temperature under normal lighting conditions. Flies were examined for mortality after 2 hours."}, "[3]": {"tested_on": "horn fly (Oklahoma strain, challenged with diazinon)", "assay": "Horn fly adult treated filter paper bioassay, Oklahoma strain (Example 2)", "format": "in vivo, Haematobia irritans irritans", "details": "for effect on coumaphos toxicity / effect on diazinon toxicity / effect on pirimiphos-methyl toxicity: triazine applied as 1% w/v solution, mortality after 2 hours; for effect on toxicity of chlorpyrifos: very high chlorpyrifos levels (140.2 μg/cm^2 and above), triazine 1% w/v", "procedure": "as §1, with “Concentrations of diazinon, pirimiphos-methyl, chlorpyrifos and coumaphos were 2.8, 3.0, 8.0, and 10 μg/cm^2, respectively (measured as the amount of pesticide applied per unit area of filter paper).” left out\nThe bioassays of Example 1 were repeated using an in vivo strain (referred to as the Oklahoma strain) maintained on steers. This horn fly strain was established using eggs from flies collected from cattle at an Oklahoma State University research ranch. The strain is maintained in vivo on steers at the USDA-ARS-KBUSLIRL, and has been challenged with diazinon. Conditions for the bioassay were the same as Example 1 except for the addition of the organophosphate fenthion, and the triazine synergists were applied as a 1% w/v solution."}, "[4]": {"tested_on": "San Roman strain of the southern cattle tick, larvae", "assay": "FAO larval packet test, San Roman strain (Example 3)", "procedure": "The strain used in these bioassays was the San Roman strain of the southern cattle tick (Boophilus microplus). […] The FAO larval packet test (LPT) was used to measure the susceptibility of tick larvae to acaricides. Dilutions of acaricide were prepared, dissolving the acaricide in trichloroethylene, then mixed with olive oil (ratio=2:1). A volume of 0.7 ml of the dilution was applied uniformly onto a piece of filter paper, and allowed to dry for 2 hr (trichloroethylene evaporates). The treated filter papers were folded into “packets” using bulldog clips, and approximately 100 larvae were added into each of “pockets”, which were then kept in a incubator (27° C., 90% RH) for 24 h before reading (# of dead and alive were counted under a magnifying glass).\nIn a first trial, tick larvae were exposed to 1% atrazine alone or in combination with 0.3, 0.6, or 1.2% w/v coumaphos.\nIn a second trial, tick larvae were exposed to varying concentrations of atrazine with either 0.3% coumaphos, 0.1 or 0.05% diazinon, or 0.01% coumaphos."}, "[5]": {"tested_on": "San Felipe strain of the southern cattle tick, larvae", "assay": "FAO larval packet test, San Felipe strain (Example 4)", "format": "in vivo, Boophilus microplus", "method": "The bioassays were conducted using the same process as described in Example 3, using the San Felipe strain of the southern cattle tick."}, "[6]": {"tested_on": "Munoz strain of the southern cattle tick, larvae", "assay": "FAO larval packet test, Munoz strain (Example 7)"}, "brown dog tick larvae": {"tested_on": "brown dog tick larvae", "assay": "FAO larval packet test, brown dog tick (Example 8)", "details": "for effect on larvae: coumaphos alone"}, "[7]": {"tested_on": "Pesqueria strain of the southern cattle tick, larvae", "assay": "FAO larval packet test, Pesqueria strain (Example 6)", "details": "for mortality: 0.1% coumaphos alone; for resistance of the strain: Pesqueria strain"}}}
{"compound": "Cc1ccc(/N=C/N(C)/C=N/c2ccc(C)cc2C)c(C)c1", "note": "[amitraz]", "values": [{"measurement": "resistance of the strain", "setting": "[1]", "value": 70, "unit": "fold"}]}
{"compound": "CCNc1nc(Cl)nc(NC(C)C)n1", "note": "[atrazine]", "values": [{"measurement": "effect on toxicity of chlorpyrifos", "setting": "[2]", "value": "neither atrazine nor propazine had any effect"}, {"measurement": "effect on toxicity of coumaphos", "setting": "[2]", "value": "reduced the toxicity"}, {"measurement": "effect on diazinon activity (fly mortality)", "setting": "[2]; combined with diazinon 2.8 μg/cm^2, even at low ratio 0.25/1", "value": "significant synergistic effect"}, {"measurement": "effect on toxicity of pirimiphos-methyl", "setting": "[2]", "value": "synergized"}, {"measurement": "effect on coumaphos toxicity", "setting": "[3]", "value": "substantially as described in Example 1"}, {"measurement": "effect on diazinon toxicity", "setting": "[3]", "value": "substantially as described in Example 1"}, {"measurement": "effect on pirimiphos-methyl toxicity", "setting": "[3]", "value": "substantially as described in Example 1"}, {"measurement": "effect on toxicity of chlorpyrifos", "setting": "[3]", "value": "did synergize"}, {"measurement": "synergism with diazinon", "setting": "[4]; 0.1 or 0.05% diazinon, weaker than with coumaphos", "value": "Synergism was also observed"}, {"measurement": "effect on coumaphos toxicity", "setting": "[4]; 1% atrazine with 0.3, 0.6 or 1.2% w/v coumaphos, first trial, 24 h", "value": "dramatically increased"}, {"measurement": "mortality", "setting": "[4]; atrazine with 0.3% coumaphos, atrazine/coumaphos ratio 2/1, 24 h", "value": 100, "unit": "%"}, {"measurement": "effect on chlorpyrifos toxicity", "setting": "[4]; high atrazine/chlorpyrifos ratios (8/1 and above)", "value": "synergized"}, {"measurement": "effect on toxicity of 0.3% coumaphos", "setting": "[4]; varying atrazine concentrations, even at atrazine/coumaphos ratio 0.25/1, second trial", "value": "strongly synergized"}, {"measurement": "toxicity of atrazine alone", "setting": "[5]; all concentrations except 0.8%", "value": "virtually non-toxic"}, {"measurement": "mortality", "setting": "[5]; atrazine alone at 0.8%", "value": 5.2, "unit": "%"}, {"measurement": "synergism with coumaphos", "setting": "[5]; combined with 0.1% coumaphos, even at lowest atrazine/coumaphos ratio 0.125/1", "value": "significant synergism"}, {"measurement": "effect on toxicity of chlorpyrifos", "setting": "[6]; 0.01% chlorpyrifos", "value": "significantly enhanced"}, {"measurement": "synergism with coumaphos", "setting": "[6]; 0.01% coumaphos", "value": "varying levels of synergism"}, {"measurement": "synergism with diazinon", "setting": "[6]; higher diazinon concentration 0.05% (data not shown)", "value": "synergistic effect of atrazine was observed even at low atrazine/diazinon ratios"}, {"measurement": "synergism with diazinon", "setting": "[6]; very low diazinon 0.005%, ratio 32/1", "value": "only provided a synergistic effect at high atrazine/diazinon ratios"}, {"measurement": "mortality", "setting": "brown dog tick larvae; atrazine alone 0.8%", "value": 25.7, "unit": "%"}, {"measurement": "mortality", "setting": "brown dog tick larvae; atrazine alone 1.0%", "value": 18.9, "unit": "%"}, {"measurement": "mortality", "setting": "brown dog tick larvae; atrazine alone at or below 0.4%", "value": "less than 4%"}, {"measurement": "effect on coumaphos toxicity", "setting": "[7]; 0.1% coumaphos, atrazine/coumaphos ratio 2/1 and above, both trials", "value": "significantly enhanced"}, {"measurement": "effect on toxicity of diazinon", "setting": "[7]; 0.25% diazinon", "value": "significantly enhanced"}, {"measurement": "synergism with coumaphos", "setting": "[1]; 0.05% coumaphos, atrazine/coumaphos ratios of 2/1 and above", "value": "Significant synergism"}, {"measurement": "synergism with diazinon", "setting": "[1]; diazinon 0.025%, similar ratios, to a lesser extent than coumaphos", "value": "Synergism was also observed"}]}
{"compound": "CCOP(=S)(OCC)Oc1ccc2c(C)c(Cl)c(=O)oc2c1", "note": "[coumaphos]", "values": [{"measurement": "effect on larvae (mortality)", "setting": "[4]; 0.3% coumaphos alone, 24 h", "value": "virtually no effect"}, {"measurement": "resistance of the strain to the acaricide", "setting": "[4]; compared with all strains tested", "value": "highest resistance"}, {"measurement": "mortality", "setting": "[6]; coumaphos alone 0.01%, similar to the control", "value": 36, "unit": "%"}, {"measurement": "mortality", "setting": "brown dog tick larvae; 0.035% coumaphos used with the synergist atrazine (1%)", "value": "greater than 60%"}, {"measurement": "effect on larvae", "setting": "brown dog tick larvae; higher concentrations", "value": "mortality increased"}, {"measurement": "effect on larvae", "setting": "brown dog tick larvae; less than or equal to 0.035%", "value": "no effect"}, {"measurement": "mortality", "setting": "[7]; first trial", "value": 42.6, "unit": "%"}, {"measurement": "mortality", "setting": "[7]; repeated trial", "value": 10.1, "unit": "%"}, {"measurement": "resistance of the strain", "setting": "[7]", "value": "low resistance"}, {"measurement": "resistance of the strain", "setting": "[1]", "value": 5.5, "unit": "fold"}, {"measurement": "mortality", "setting": "[1]; coumaphos alone at 0.05%", "value": 28.9, "unit": "%"}]}
{"compound": "CCOP(=S)(OCC)Oc1cc(C)nc(C(C)C)n1", "note": "[diazinon]", "values": [{"measurement": "resistance of the strain", "setting": "[7]", "value": "very high level of resistance"}, {"measurement": "resistance of the strain", "setting": "[1]", "value": 2.6, "unit": "fold"}]}
{"compound": "CC1(C)C(C=C(Cl)Cl)C1C(=O)OCc1cccc(Oc2ccccc2)c1", "note": "(stereo not shown) [permethrin]", "values": [{"measurement": "resistance of the strain", "setting": "[1]", "value": 200, "unit": "fold"}]}
{"compound": "CC(C)Nc1nc(Cl)nc(NC(C)C)n1", "note": "[propazine]", "values": [{"measurement": "effect on toxicity of chlorpyrifos", "setting": "[2]", "value": "neither atrazine nor propazine had any effect"}, {"measurement": "effect on toxicity of coumaphos", "setting": "[2]", "value": "reduced the toxicity"}, {"measurement": "effect on toxicity of pirimiphos-methyl", "setting": "[2]", "value": "synergized"}, {"measurement": "effect on coumaphos toxicity", "setting": "[3]", "value": "substantially as described in Example 1"}, {"measurement": "effect on diazinon toxicity", "setting": "[3]", "value": "substantially as described in Example 1"}, {"measurement": "effect on pirimiphos-methyl toxicity", "setting": "[3]", "value": "substantially as described in Example 1"}, {"measurement": "effect on toxicity of chlorpyrifos", "setting": "[3]", "value": "did synergize"}]}
